Marks after values point to notes of the source that are not given here.
Experiment: Solubility of active agents in surfactants (saturation, HPLC)
Type: physicochemical
Conditions: 40° C., mean of three ± SD unless a (single) or b (duplicate); for Solubility Irinotecan HCl: irinotecan HCl in the surfactant; for Solubility Irinotecan base: irinotecan base in the surfactant; for Solubility Paclitaxel: paclitaxel in the surfactant
Procedure: In order for the surfactants to be useful as components of the delivery system, it is important to be able to dissolve biologically active agents in the surfactant or in the water. Table 3 illustrates that the surfactants are useful for dissolving three pharmaceutical compounds that may potentially be delivered using the invention. Solubility was determined by saturation of the surfactant with solid drug at 40° C. until saturation is achieved. Drug level was determined by reverse phase HPLC. Values given are the mean of three separate samples±standard deviation, unless denoted otherwise.

| SMILES | Solubility Irinotecan HCl | Solubility Irinotecan base | Solubility Paclitaxel |
| --- | --- | --- | --- |
| CC(C)CCCC(C)CCCC(C)CCCC(C)CCN(CCO)C(N)=O (centres unmarked) [1-(3,7,11,15-tetramethyl-hexadecyl)-1-(2-hydroxyethyl)urea] | 0.43 ± 0.20 mg/g | 0.35 ± 0.001 mg/g | 0.87 ± 0.18 mg/g |
| CC(C)CCCC(C)CCCC(C)CCCC(C)CCNC(=O)NCCO (centres unmarked) [1-(3,7,11,15-tetramethyl-hexadecyl)-3-(2-hydroxyethyl)urea] | 4.36 ± 0.30 mg/g | 0.94 ± 0.02 mg/g | 5.67 ± 1.64 mg/g |
| CC(C)CCCC(C)CCCC(C)CCCC(C)CCNC(N)=O (centres unmarked) [3,7,11,15-Tetramethyl-hexadecyl urea] | 1.63 ± 0.64 mg/g | 0.44 ± 0.11 mg/g | 7.85 ± 1.93 mg/g |
| CC(C)CCCC(C)CCCC(C)CCNC(N)=O (centres unmarked) [3,7,11-Trimethyl-dodecyl urea] | 33.83 ± 5.98 mg/g | 3.76 ± 0.45 mg/g | 34.65 ± 2.34 mg/g |
| CC(C)CCCC(C)CCCC(C)CCCC(C)CC(=O)OCC(O)CO (centres unmarked) [3,7,11,15-tetramethyl-hexadecanoic acid 1-glycerol ester] | – | 6.22^a mg/g | 6.66^a mg/g |
| CCCCCCCCC=CCCCCCCCCOC(=O)C(O)CO (centres unmarked) [2,3-Dihydroxypropionic acid octadec-9-enyl ester] | 9.69 ± 0.74 mg/g | 35.66 ± 1.26 mg/g | 8.43 ± 0.23 mg/g |
| CC(C)CCCC(C)CCCC(C)CCOC(=O)C(O)CO (centres unmarked) [2,3-Dihydroxypropionic acid 3,7,11-trimethyl-dodecyl ester] | 4.58^a mg/g | 3.92^b mg/g | 7.25^b mg/g |
| CC(C)CCCC(C)CCCC(C)CCCC(C)CCOC(=O)C(O)CO (centres unmarked) [2,3-Dihydroxypropionic acid 3,7,11,15-tetramethyl-hexadecyl ester] | 4.33 ± 0.37 mg/g | 64.54 ± 4.65 mg/g | 4.83 ± 0.83 mg/g |
